Like-named read-outs stand apart in the source and are kept apart here.
Columns and labels:
[1] = Tissue distribution, brain/plasma ratio by LC-MS; format: in vivo, rat; conditions: for Kp at 1 h: sc, 3 mg/kg, subcutaneous injection, 1 hour after injection; for Kp at 1 h / Kp: rat
Experimental: The second method was to measure the tissue distribution of the substance to be measured in animal tissues. Firstly the candidate substance was administrated to animals by injection (or oral administration). The brain tissue and plasma tissue were extracted 0.25-2.0 hours after injection. liquid Chromatograph Mass SpectrometerL-MS was used to measure the concentration of the drug. If the brain/plasma ratio of the compound is less than 0.5, then the candidate substance is a potential drug for treating pain with fewer side effects.
Meanwhile, the inventors detected the distribution of these compounds in the tissue of rats. Firstly the substances to be measured were subcutaneously injected into the body of animals. Then brain tissue and plasma tissue were extracted 1 hour after injection. Ls-MS was used to measure the concentration of drugs. If the brain/plasma ratio of the compound is less than 0.1, then the candidate substance is a potential drug for treating pain with fewer side effects.

[2] = tested on: CFA induced inflammatory pain model rats (mechanical pain); assay: CFA induced inflammatory pain model, mechanical pain threshold; format: in vivo; conditions: rat, 3 mg/kg injection, 7 days after CFA, 1 hour after administration
[3] = tested on: CFA induced inflammatory pain model rats (heat pain); assay: CFA induced inflammatory pain model, heat pain threshold; format: in vivo; conditions: rat, 3 mg/kg injection, 3 days after CFA, 1 hour after administration
[4] = tested on: SNI model rats (neuropathic pain); assay: Spared nerve injury (SNI) model, neuropathic pain, mechanical pain threshold; format: in vivo; conditions: rat, 3 mg/kg subcutaneous, 14 days after SNI, 1 hour after administration
Experimental: Male SD rats (200-250 g) were used, 6 per group in the cage. All the animals were placed under 12 hours light/cycle (i.e. 12 hours light and 12 hours dark in each day), free to food and water. All the experiments were conducted under the condition that the observers were blind to pharmaceutical treatment.
Spared nerve injury model (SNI): 10% chloral hydrate was injected intraperitoneally to anesthetize rats. […] The muscle was longitudinally separated to expose the core of sciatic nerve and the branching below: tibial nerve, common peroneal nerve and sural nerve. The tibial nerve and common peroneal nerve were ligatured and cut and small sural nerve was retained, meanwhile preventing any injury. The muscle and skin were sutured layer by layer, and then antibiotics were injected intraperitoneally for antibacterial purpose. For detailed methods, please refer to Decosterd I and Woolf C J. Spared nerve injury: an animal model of persistent peripheral neuropathic pain. 2000 August; Pain 87(2):149-58.
Method for detecting mechanical hyperalgesia in rats: firstly CFA solution was injected in the thenar of rats. After 24 hours, mechanical hyperalgesia quantitative detection was adopted to measure the paw withdrawal of rats to normal and harmless mechanical stimulation. Evaluation was conducted according to reference (Chaplan S R et al., Quantitative assessment of tactile allodynia in the rat paw. J Neurosci Methods. 1994 July; 53(1):55-63). In this method, the von Frey fibers with different bending force (equivalent to the range of 1-50 g force) were used to apply harmless mechanical stimulation. The rats were placed in organic glass box with metal mesh plate, and the von Frey fibers were applied on the surface of leg thenar. The von Frey fibers were applied vertically to the surface of thenar to generate the force that will trigger slight resistance to the leg. 2-3 seconds were maintained for every leg thenar. If the leg withdrew suddenly, positive records were recorded. The threshold was the mean of the weight that caused 50% paw withdrawal response (5-6 paw withdrawal/10 stimulations) in overall 10 stimulations.
Compounds MRK 016, C2, C3, C4, C5, C6, C7, C8 or α5IA (A5I) were dissolved in 70% PGE400 (PGE400:water=70:30 in volume). For injection dose, MRK016 was 2 mg/kg body weight; A5I was 3 mg/kg body weight; C2, C3, C4, C5, C6, C7 and C8 were 3 mg/kg body weight.
MRK016-M3 was dissolved in 90% PGE400 (PGE400:water=90:10 in volume). The doses were 10 mg/kg, 3 mg/kg, 1 mg/kg and 0.3 mg/kg, respectively for oral administration.
The method for behavioral data statistics was unpaired t-test. *, p<0.05, represents significant difference.

[5] = biological target: T1, Human recombinant GABAA receptor containing α1 subunit (α1, β3, γ2) (Homo sapiens, UniProt P14867+P18507); assay: Competitive radioligand binding ([3H]Ro-0151788) on membranes of 293 cells, Ki; conditions: human recombinant GABAA subtype containing α1; read-out: Affinity, nM (α1)
T1 construct: expressed in transfected cells; host or cells: 293 cell line
Experimental: (§1) Different subunits of GABAA receptor were expressed in cell lines, including human kidney epithelial cell line, 293 cell line or L(tk−) cell line. The cells were cultured in medium, and such cells were used as the cellular model for screening drugs to suppress pain. a subunit, β subunit and γ subunit are indispensable for one complete functional GABAA receptor.
(§2) In this example, the inventors established the following cellular models:
(§3) (b) simultaneously expressing α1 subunit (GenBank accession number: NM_001127648.1), β3 subunit and γ2 subunit in 293 cell line, forming the GABAA receptor containing α1 subunit; • (c) simultaneously expressing α2 subunit (for the protein sequence, see GenBank accession number NM_000813.2), β3 subunit and γ2 subunit in 293 cell line, forming the GABAA receptor containing α2 subunit;
(§4) Each of the (a) to (d) above could form a GABAA receptor with complete function.
(§5) Then, the cellular membrane was extracted and the protein concentration was measured. The competitive binding of the substances to be measured and radiolabelled compounds (e.g. 1 nM [^3H]Ro-0151788) were detected respectively to calculate the Ki value of the substances to be measured, see the method described in literature (Ballard T M et al., RO4938581, a novel cognitive enhancer acting at GABAA alpha5 subunit-containing receptors. Psychopharmacology (Berl). 2009 January; 202(1-3): 207-23). If the binding inhibition constant Ki (nM) of α5-GABAA receptor with the candidate substances in experimental group is less than the Ki of the receptor containing other a subunit (α1 subunit, α2 subunit or α3 subunit), then the candidate substance is a potential drugs for preventing, relieving or treating pain. Many methods can be used by those skilled in the art to evaluate the binding capacity of the ligand of α5-GABAA receptor to the α5-GABAA receptor, including but not limiting to the method above.

[6] = tested on: α5-GABAA receptor in central nervous system; conditions: in vivo, Jones et al. 2006; cited from earlier work
[7] = biological target: T2, Human recombinant GABAA receptor containing α1 subunit (Homo sapiens, UniProt P14867+P18507); assay: Electrophysiological inverse agonist efficacy on GABA-induced current; format: cell-based; conditions: change of GABA-induced current; negative = inhibition
T2 construct: expressed in transfected cells; host or cells: 293 cell line
Experimental: as §1, §3
(§6) The inventors used electrophysiological methods to measure the inverse agonist efficacy of the substances to be measured, see the method described in literature (Ballard T M et al., RO4938581, a novel cognitive enhancer acting at GABAA alpha5 subunit-containing receptors. Psychopharmacology (Berl). 2009 January; 202 (1-3): 207-23). […] Many methods can be used by those skilled in the art to evaluate the binding capacity of the ligand of α5-GABAA receptor to the α5-GABAA receptor, including but not limiting to the method above.
(§7) Inverse agonist efficacy represents the inhibition percentage of the candidate substance on the current induced by GABA through α5-GABAA receptor=(the current intensity induced by GABA through α5-GABAA receptor with the existence of candidate substance−the current intensity induced by GABA through α5-GABAA receptor without the existence of candidate substance)/the current intensity induced by GABA through α5-GABAA receptor without the existence of candidate substance.

[8] = tested on: Human recombinant GABAA receptor containing α2 subunit; assay: as above; format: cell-based; conditions: change of GABA-induced current; negative = inhibition
Experimental: as §1, §3, §6, §7

[9] = biological target: T3, Human recombinant GABAA receptor containing α5 subunit (α5, β3, γ2) (Homo sapiens, UniProt P18507+P31644); assay: Competitive radioligand binding ([3H]Ro-0151788) on membranes of 293 cells, Ki; conditions: human recombinant GABAA subtype containing α5; read-out: Affinity, nM (α5)
T3 construct: expressed in transfected cells; host or cells: 293 cell line
Experimental: as §1, §2
(§8) (a) simultaneously expressing α5 subunit (for the protein sequence, see GenBank accession number NM_001165037.1), β3 subunit (for the protein sequence, see GenBank accession number NM_021912.4) and γ2 subunit (for the protein sequence, see GenBank accession number NM_198904.2) in 293 cell line, forming the GABAA receptor containing α5 subunit;
as §4, §5

[10] = biological target: T4, Human recombinant α5-GABAA receptor (Homo sapiens, UniProt P18507+P31644); conditions: Jones et al. 2006; cited from earlier work
T4 construct: expressed in transfected cells; host or cells: 293 cell line

[11] = biological target: T5, Human recombinant GABAA receptor containing α3 subunit (α3, β3, γ2) (Homo sapiens, UniProt P18507+P34903); assay: Competitive radioligand binding ([3H]Ro-0151788) on membranes of 293 cells, Ki; conditions: human recombinant GABAA subtype containing α3; read-out: Affinity, nM (α3)
T5 construct: expressed in transfected cells; host or cells: 293 cell line
Experimental: as §1, §2
(§9) (d) simultaneously expressing α3 subunit (for the protein sequence, see GenBank accession number NM_000808.3), β3 subunit and γ2 subunit in 293 cell line, forming the GABAA receptor containing α3 subunit;
as §4, §5

[12] = biological target: T6, Human recombinant GABAA receptor containing α3 subunit (Homo sapiens, UniProt P18507+P34903); assay: Electrophysiological inverse agonist efficacy on GABA-induced current; format: cell-based; conditions: change of GABA-induced current; negative = inhibition
T6 construct: expressed in transfected cells; host or cells: 293 cell line
Experimental: as §1, §9, §6, §7

[13] = biological target: T4, Human recombinant α5-GABAA receptor; assay: as above; format: cell-based; conditions: change of GABA-induced current; negative = inhibition
Experimental: as §1, §8, §6, §7

[14] = brain and plasma extracted 0.25-2.0 hours after injection, LC-MS

Row | Compound | Kp at 1 h ([1]; brain and plasma, LC-MS) | CFA induced inflammatory pain model (mechanical pan), analgesic effect [2] | CFA induced inflammatory pain model (heat pain), analgesic effect [3] | Neuropathic pain (SNI model), analgesic effect [4] | other results
1 | Clc1ncn2c1Cn1ncnc1-c1cc(Br)ccc1-2 [drawing 57] | < 0.1 | Significant analgesic effect | Significant analgesic effect | Significant analgesic effect | 
2 | Cc1ncn2c1Cn1ncnc1-c1cc(Cl)ccc1-2 | 0.2 | Significant analgesic effect | Significant analgesic effect | Significant analgesic effect | 
3 | Clc1ccc2c(c1)-c1ncnn1Cc1c(Cl)ncn1-2 |  | Significant analgesic effect | Significant analgesic effect | Significant analgesic effect | Kp at 1 h ([1]; in vivo, LC-MS): > 0.2
4 | FC(F)c1ncn2c1Cn1ncnc1-c1cc(Br)ccc1-2 [drawing 27] |  |  |  |  | Passing blood brain barrier [1, 14]: slightly passing blood brain barrier; Kp ([1]; other: injection (or oral administration), brain and plasma extracted 0.25-2.0 hours after injection, LC-MS, read-out: brain/plasma ratio): < 0.5
5 | Cc1cc(-c2nncc3c(C(C)(C)CO)c(OCc4ncnn4C)nn23)no1 [MRK016-M2] |  |  |  |  | Ki [5]: 26 nM; Binding to α5-GABAA receptor in brain / inhibition of (3H)Ro-15-1788 binding in center [6]: not capable of binding the α5-GABAA receptor in brain; Inverse agonist efficacy, % (α1) [7]: −41%; Inverse agonist efficacy, % (α2) [8]: −23%; Ki [9]: 9.4 nM; Inverse agonist effect of α5-GABAA receptor [10]: significant inverse agonist effect; Ki [11]: 9.8 nM; Inverse agonist efficacy, % (α3) [12]: −32%; Inverse agonist efficacy, % (α5) [13]: −40%
6 | Cc1ncn2c1Cn1ncnc1-c1cc(I)ccc1-2 | < 0.1 | Significant analgesic effect | Significant analgesic effect | Significant analgesic effect | 
7 | FC(F)c1ncn2c1Cn1ncnc1-c1cc(Br)ccc1-2 [drawing 58] | > 0.2 | Significant analgesic effect | Significant analgesic effect | Significant analgesic effect | 
8 | Cc1ncn2c1Cn1ncnc1-c1cc(Br)ccc1-2 | < 0.2 | Significant analgesic effect | Significant analgesic effect | Significant analgesic effect | 
9 | Clc1ncn2c1Cn1ncnc1-c1cc(Br)ccc1-2 [drawing 28] |  |  |  |  | Passing blood brain barrier [1, 14]: more slightly passing blood brain barrier; Kp ([1]; in vivo): < 0.5
10 | Clc1ncn2c1Cn1ncnc1-c1cc(I)ccc1-2 | < 0.1 | Significant analgesic effect | Significant analgesic effect | Significant analgesic effect | 

Source: patent US20150374705A1, “Substances for treatment or relief of pain” (Shanghai Institues for Biological Sciences, priority 2012, published 2015)
